Data reported in patent US7622498B2, “Sugar derivatives comprising oxiranes or α, β-unsaturated δ-lactones, process for their preparation and their utilisation as pesticides” (Instituto Politecnico de Santarem/Escoal Superior Agraria, priority 2004, dated 2009).
In brackets after ≈: the same amount, converted by molar mass. Entries after “also recorded” stand apart in the source; their conditions may differ.

Columns and labels:
[1] = test system: adult fruit fly (D. melanogaster); test: Method A: topical treatment of adult fruit fly; type: in vivo, Drosophila melanogaster; conditions: for LD50: Method A, topical 0.2 μL acetone solution, adult fruit flies, 24 hour mortalities, probit regression; for activity against adult fruit flies (in words): topical treatment, from LD50 values
Procedure: Topical Treatment of Adult Fruit Fly (D. melanogaster)
A culture of fruit flies (D. melanogaster) was used in the production of adult flies (approx 0.22 mg) of about seven days.
Serial dilutions of the compounds were prepared in acetone, and volumes of approximately 0.2 μL were applied to the ventral surface of each insect, using a calibrated PAX 100 microapplicator and a 1 mL syringe.
The fruit flies, in groups of 5, were anaesthetised using carbon dioxide. Prior to recovery the flies were placed in a containing vial and kept at 30±1° C., for observations of mortality at 1, 2, 3 and 24 hours after treatment.
For this purpose solutions of 6 different concentrations and a control were employed in groups of 12 and 20 insects. Control mortalities were normally zero but occasionally rose to 5-10%.
(§1) Dosages used in insect treatments were based upon the amount of compound applied to each insect. For the shrimps the final concentrations of the compounds in the immersion brine were used.
(§2) The 24 hour mortalities were used to calculate the LD50/LC50 using regression analysis of the probability percent mortality (probit) against log dose/concentration.^30 This was calculated using PoloPC software (LeOra Software, Berkeley, Calif., 1994).
In the table are also given the confidence intervals at 95% for the LD50 values, the number of organisms tested, the slope obtained by linear regression and the index g (of significance). Data are considered satisfactory if g is substantially less than 1 and seldom greater than 0.4.^31
As regards the confidence intervals for LD50, the indication (90%) means that the intervals were calculated at 90% and not at 95%.

[2] = test system: brine shrimp A. salina larvae; test: Method F: immersion bioassay of brine shrimp larvae in brine; type: in vivo; conditions: brine shrimp larvae immersed in brine, 24 hour mortalities
Procedure: (§3) Immersion Bioassay of Brine Shrimp A. salina Larvae in Brine
(§4) Freshly hatched brine shrimps were prepared by adding aquarium brine shrimp eggs to salt water (15 g sea salt per litre water). The following day hatchlings were separated from eggs and empty egg cases, using their phototropic movement and a Pasteur pipette.
(§5) Into each of a set of small glass vials was pipetted 195 μL of brine containing 5 shrimp larvae, using a micropipette. The solution of the test compound in 5 μL acetone was added, the vial closed and kept at 30±1° C. for observation.
(§6) Dead and alive shrimps were counted, at 1 and 24 hours after treatment, using a microscope. Six concentrations and a control were used with 10 shrimps treated.
(§7) A blank test was performed for comparison of the results.
as §1, §2

[3] = as above; type: in vivo; conditions: Artemia salina (brine shrimp) larvae, in vivo, brine shrimp larvae immersed in brine, 24 hour mortalities
Procedure: as §3, §4, §5, §6, §7, §1, §2

[4] = test system: glasshouse white fly (T. vaporariorum); test: Method G: foliar treatment of glasshouse white fly on tomato leaves; type: in vivo, Trialeurodes vaporariorum; conditions: for % Control of White Fly: sprayed on infested tomato leaves, 14 hours; for insecticidal efficacy against adult white fly (in words): spraying infested tomato leaves
Procedure: Method G Foliar Treatment of Glasshouse White Fly (T. vaporariorum) Seedlings of tomato plants were infested with adult white fly. Selected leaves of the tomato plants were excised and carefully trimmed to 3 leaflets without disturbing the infestation. These were placed in glass tubes containing water and the leaflets were then sprayed on both sides with a small sprayer delivering for each one 200 μL of a solution of the test compound dissolved in 30% acetone in water. Controls were sprayed with the solvent alone. Counts of insects on the individual leaflets were made immediately after spraying and then at 14 hours following. Where single dose treatments were used (in the case of whitefly assays), no statistics are available and the results are expressed as percent effect. Five compounds were tested, which were applied spraying 600 μL of each compound solution (prepared according to method G) on of leaves of tomato plants infested with a known number of adult whitefly. After 14 hours, the number of dead insects (or eventually of insects that disappeared) was counted. These assays were performed at room temperature, between 20 and 25° C.

fruit fly larvae = test: Method D: topical treatment of fruit fly larvae; type: in vivo, Drosophila melanogaster; conditions: for toxicity to fruit fly larvae compared with adult flies (in words): topical treatment of larvae, from LD50 values; for LD50: Method D, topical 0.2 μL acetone solution, second and third instar fruit fly larvae
Procedure: Topical Treatment of Fruit Fly Larvae
Fruit fly larvae were separated from the growing medium and second and third instars were topically treated with 0.2 μL acetone solutions of the compounds using a PAX microapplicator.
Larvae were held in padded forceps for dosing and then placed on moistened filter paper, at 30±1° C., for observation.
as §1, §2

[5] = test system: house fly adults (M. domestica); test: Method E: topical treatment of house fly adults; type: in vivo, Musca domestica; conditions: topical 1 μL acetone solution, adult house flies, strain Cooper
Procedure: Topical Treatment of House Fly Adults (M. domestica)
A culture of an insecticide-susceptible strain, Cooper, was established. Three-day-old adult house flies (body weight about […]) were anaesthetised with carbon dioxide. Using the PAX microapplicator, a volume of 1 μL of acetone solution of the test compounds was applied to the dorsal cuticle, holding the fly in padded forceps.
Groups of flies were placed into closed vials, kept at 30±1° C., for observation.
as §1, §2

adult fruit flies = test: Method B: second method for topical treatment of adult fruit flies; type: in vivo, Drosophila melanogaster; conditions: topical 1 μL acetone solution, 24 hour mortalities
Procedure: Second Method for Topical Treatment of Adult Fruit Flies
Different dilutions of the compounds in acetone were prepared and applied to individual fruit flies using a Gilson piston micropipette.
Individual flies were held in padded forceps and 1 μL of acetone solution was applied. The acetone was allowed to evaporate before placing the fly into the vial for observation, kept at 30±1° C., following the standard methodology.
as §1, §2

| Compound | LD50 [1] | activity against adult fruit flies (in words) [1] | LC50 [2] | also measured |
| --- | --- | --- | --- | --- |
| CC1=C[C@H]([C@H]2O[C@@H]3OC(C)(C)O[C@@H]3[C@H]2OCc2ccccc2)OC1=O [Compound 1, 3-O-benzyl-6,7-dideoxy-1,2-O-isopropylidene-7-methyl-α-D-gluco-oct-6-enefuranurono-8,5-lactone] | 0.00002 μg/insect | extremely active | 100.62 µg/mL (≈ 290 µM) | – |
| O=[N+]([O-])NC1=NCCN1Cc1ccc(Cl)nc1 [Imidacloprid, imidacloprid, reference compound] | 0.01253 μg/insect | – | – | LC50 at 24 h [3]: 0.0312 µg/mL (≈ 0.122 µM) |
| CO[C@H]1O[C@H]([C@@H]2CO2)[C@@H]2O[C@H]12 [Compound 9, Methyl 2,3:5,6-Dianhydro-β-L-gulofuranoside] | 0.00003 μg/insect | extremely active; also recorded: high toxicity against adult fruit flies | 671.50 µg/mL (≈ 4250 µM) | % Control of White Fly ([4]; concentration 2.5 μg/mL): 85%; insecticidal efficacy against adult white fly (in words) [4]: show efficacy as insecticides; also recorded: promising for activity against the white fly |
| CC1(C)OC2OC(C3CC(C)([Se]c4ccccc4)C(=O)O3)C(OCc3ccccc3)C2O1 [Compound 8, (7R)-/(7S)-3-O-Benzyl-6,7-dideoxy-1,2-O-isopropylidene-7-methyl-7-phenylselenyl-α-D-gluco-octofuranurono-8,5-lactone] | 0.00037 μg/insect | – | 220.41 µg/mL (≈ 438 µM) | toxicity to fruit fly larvae compared with adult flies (in words) (fruit fly larvae): less toxic for larvae than for adult flies; LD50 [5]: 0.644 μg/insect |
| (7R)-/(7S)-3,6,7-Trideoxy-1,2-O-isopropylidene-7-methyl-7-phenylselenyl-α-D-ribo-octofuranurono-8,5-lactone [Compound 7] | 0.0002 μg/insect | – | 261.04 µg/mL | LD50 (fruit fly larvae): 0.968 μg/insect; % Control of White Fly ([4]; concentration 4.8 μg/mL): 0% |
| CC1=C[C@H]([C@H]2O[C@@H]3OC(C)(C)O[C@@H]3[C@@H]2OCc2ccccc2)OC1=O [Compound 2, 3-O-benzyl-6,7-dideoxy-1,2-O-isopropylidene-7-methyl-α-D-alo-oct-6-enefuranurono-8,5-lactone] | 2.27 × 10^−6 μg/insect | extremely active | 64.30 µg/mL (≈ 186 µM) | LD50 (adult fruit flies): 0.00398 μg/insect |
| CC1(C)O[C@H]2O[C@H]([C@H]3C=CC(=O)O3)[C@H](OCc3ccccc3)[C@H]2O1 [Compound 4, 3-O-benzyl-6,7-dideoxy-1,2-O-isopropylidene-α-D-gluco-oct-6-enefuranurono-8,5-lactone] | 0.00012 μg/insect | high toxicity against adult fruit flies | 358.92 µg/mL (≈ 1080 µM) | % Control of White Fly ([4]; concentration 2.5 μg/mL): 50%; insecticidal efficacy against adult white fly (in words) [4]: show efficacy as insecticides; also recorded: promising for activity against the white fly |
| CC(=O)OC[C@H]1OC(=O)C(Br)=C[C@@H]1OC(C)=O [Compound 5, 4,6-di-O-acetyl-2-bromo-2,3-dideoxy-D-erythro-hex-2-enone-1,5-lactone] | 0.00016 μg/insect | – | 38.36 µg/mL (≈ 125 µM) | LD50 (fruit fly larvae): 4.75 μg/insect; toxicity to fruit fly larvae compared with adult flies (in words) (fruit fly larvae): less toxic for larvae than for adult flies; LD50 [5]: 1.065 μg/insect |
| CC1(C)O[C@H]2O[C@H]([C@H]3C=CC(=O)O3)[C@@H](OCc3ccccc3)[C@H]2O1 [Compound 3, 3-O-benzyl-6,7-dideoxy-1,2-O-isopropylidene-α-D-alo-oct-6-enefuranurono-8,5-lactone] | 5.02 × 10^−6 μg/insect | extremely active | 144.71 µg/mL (≈ 435 µM) | % Control of White Fly ([4]; concentration 1.3 μg/mL): 0% |
| methyl (7R)-/(7S)-2,3-anhydro-6,7-dideoxy-7-methyl-7-phenylselenyl-α-gulo-octofuranurono-8,5-lactone [Compound 6] | 0.00015 μg/insect | – | 125.48 µg/mL | % Control of White Fly ([4]; concentration 1.3 μg/mL): 0% |
